Source: US8093260B2, “Aporphine derivatives and pharmaceutical use thereof” (Standard Chem. & Pharm. Co., Ltd., priority 2008, dated 2012)

How the values were obtained:
[1] = tested on: vascular smooth muscle cells of rats; test: Protecting activity in vascular smooth muscle cells against H2O2 (MTT); type: cell-based, rat; settings: compound 10 μM, 30 minutes before H2O2 200 μM, 24 hours, FIG. 3
Method: The vascular smooth muscle cells of rats (2×10^4 cells/mL×1 mL) were quantitatively seeded in 24-well plates, and cultured in Dulbecco's modified Eagle medium (DMEM) with 10% fetal bovine serum (FBS) for 24 hours to achieve cell adhesion. After cell adhesion, the DMEM medium with 10% fetal bovine serum was replaced with a fresh DMEM medium with 0.1% fetal bovine serum to perform cell culture for 48 hours.
Next, the test compounds were added in the cultures (final concentration: 0.1, 1, 10 μM). After 30 minutes, H2O2 (200 μM) was added therein to perform reaction for 24 hours in an incubator. Subsequently, in a light-proof environment, MTT (100 μL) was added into each well to perform reaction at 37° C. for 3 hours. The supernatant liquor was removed and then isopropanol (500 μL) was added, followed by shaking for 10 minutes. After standing for 10 minutes, supernatant liquor (200 μL) was transferred into 96-well plates. Finally, the absorbance values (O.D.) were monitored at 540 nm (OD540) and 630 nm (OD630). Based on the measured absorbance values (OD540-OD630), the effect of these test compounds on cell growth can be evaluated, as shown in FIG. 3.

lipid peroxidase = test: Activity in inhibiting lipid peroxidase (malondialdehyde quantitation); type: biochemical, Dunkin Hartley Guinea pig; settings: 10 μM; guinea pig liver microsomes; 20 minutes/37° C.
Method: The assay was executed with reference to the method described in Biochem Biophys Res Commun. 1986; 135(3): 1015-1021.
• (a) Source: Dunkin Hartley Guinea pig liver microsomes • (b) Substrate: Polyunsaturated fatty acid • (c) Vehicle: 1% DMSO • (d) Pre-Incubation Time/Temp: 15 minutes/37° C. • (e) Incubation Time/Temp: 20 minutes/37° C. • (f) Incubation Buffer: 0.25 M Potassium Phosphate, pH 7.4, 0.1 mM EDTA • (g) Quantitation Method: Spectrophotometric quantitation of Malondialdehyde

[2] = Free radical scavenging of AAPH (β-phycoerythrin fluorescence decay); type: biochemical; settings: compound 5×10^−6 M, AAPH 25 mM, β-phycoerythrin 5 nM, FIG. 2
Text: In order to evaluate the effect of test compounds in scavenging hydrophilic peroxy radical, the experiment was executed with reference to the method described by Tsuchiya et al. (Methods Enzymol 1992; 213: 460-472). In the experiment, peroxides will react with fluorescent substances and thus inflect observed fluorescence intensity. Thereby, the effect of test compounds in free radical scavenging can be evaluated by measuring the variation of the fluorescence intensity after the addition of test compounds.
First, to a silicate tube was added a phosphate solution (2 ml, pH 7.4), followed by the addition of β-phycoerythrin (5 nM) to increase relative fluorescence intensity. After 5 minutes, 2,2′-azobis(2-amidinopropane)dihydrochloride (25 mM, AAPH) was added therein. Subsequently, through a fluorescent spectrometry (Shimadzu RF-5301PC, Japan), the fluorescence intensity of β-phycoerythrin was measured by excitation at 540 nm and emission at 570 nm. Then, the test compounds (5×10^−6 M) was further added therein to observe the variation of the fluorescence intensity, in which 0.1% DMSO was taken as a control group.

| SMILES | inhibition of H2O2 damage to vascular smooth muscle cells (cell viability, MTT) [1] | Inhibition (%) (lipid peroxidase) | protection of β-phycoerythin from peroxy radical AAPH-induced damage (fluorescence decay) [2] |
| --- | --- | --- | --- |
| COc1cc2c(cc1OC)-c1c(O)c(OC)cc3c1C(C2)N(CC(O)COc1ccccc1OC)CC3 (stereo not drawn) [Compound 1] | significantly inhibit H2O2 to damage vascular smooth muscle cells | 64 | delay β-phycoerythin fluorescence degradation |
| COc1cc2c(cc1OC)-c1c(O)c(OC)cc3c1C(C2)N(CC(=O)Nc1c(C)cccc1C)CC3 (stereo not drawn) [Compound 2] | slightly inhibit H2O2 to damage vascular smooth muscle cells | 70 | delay β-phycoerythin fluorescence degradation |
